Measured values taken from paper PMC10912062, “A novel PET probe to selectively image heat shock protein 90α/β isoforms in the brain” (EJNMMI Radiopharmacy and Chemistry, 2024).

Experiments:
Experiment in all cases: biochemical
Conditions in all cases: read-out: Percentage of inhibition / BIIB021 1×10-5 mol/L; competitive radioligand binding
β2-Adrenergic (Human) = biological target: T1, β2-Adrenergic (Human) (Homo sapiens, UniProt P07550)
T1 construct: gene ADRB2
Description: (§1) Percent inhibition for each protein was calculated following the reported method (Okamura et al. [2013]).

Sigma σ2 = biological target: T2, Sigma σ2 (Rattus norvegicus, UniProt Q5U3Y7)
T2 construct: gene Tmem97
Description: as §1

Serotonin 5HT1A (Human) = biological target: T3, Serotonin 5HT1A (Human) (Homo sapiens, UniProt P08908)
T3 construct: gene HTR1A
Description: as §1

Glucocorticoid (Human) = biological target: T4, Glucocorticoid (Human) (Homo sapiens, UniProt P04150)
T4 construct: gene NR3C1
Description: as §1

Muscarinic M3 (Human) = biological target: T5, Muscarinic M3 (Human) (Homo sapiens, UniProt P20309)
T5 construct: gene CHRM3
Description: as §1

Serotonin 5HT2A (Human) = biological target: T6, Serotonin 5HT2A (Human) (Homo sapiens, UniProt P28223)
T6 construct: gene HTR2A
Description: as §1

Opiate μ (Human) = biological target: T7, Opiate μ (Human) (Homo sapiens, UniProt P35372)
T7 construct: gene OPRM1
Description: as §1

Histamine H3 (Human) = biological target: T8, Histamine H3 (Human) (Homo sapiens, UniProt Q9Y5N1)
T8 construct: gene HRH3
Description: as §1

[1] = biological target: T9, Dopamine transporter (Human) (Homo sapiens, UniProt Q01959)
T9 construct: gene SLC6A3
Description: as §1

Endothelin ETB (Human) = biological target: T10, Endothelin ETB (Human) (Homo sapiens, UniProt P24530)
T10 construct: gene EDNRB
Description: as §1

α1A-Adrenergic = biological target: T11, α1A-Adrenergic (Rattus norvegicus, UniProt P43140)
T11 construct: gene Adra1a
Description: as §1

[2] = biological target: T12, Dopamine D2 short (Human) (Homo sapiens, UniProt P14416)
T12 construct: gene DRD2; short isoform
Description: as §1

Bradykinin B1 (Human) = biological target: T13, Bradykinin B1 (Human) (Homo sapiens, UniProt P46663)
T13 construct: gene BDKRB1
Description: as §1

[3] = biological target: T14, Norepinephrine transporter (Human) (Homo sapiens, UniProt P23975)
T14 construct: gene SLC6A2
Description: as §1

Angiotensin AT1 (Human) = biological target: T15, Angiotensin AT1 (Human) (Homo sapiens, UniProt P30556)
T15 construct: gene AGTR1
Description: as §1

Melatonin MT1 (Human) = biological target: T16, Melatonin MT1 (Human) (Homo sapiens, UniProt P48039)
T16 construct: gene MTNR1A
Description: as §1

Dopamine D3 (Human) = biological target: T17, Dopamine D3 (Human) (Homo sapiens, UniProt P35462)
T17 construct: gene DRD3
Description: as §1

Histamine H1 (Human) = biological target: T18, Histamine H1 (Human) (Homo sapiens, UniProt P35367)
T18 construct: gene HRH1
Description: as §1

α2A-Adrenergic (Human) = biological target: T19, α2A-Adrenergic (Human) (Homo sapiens, UniProt P08913)
T19 construct: gene ADRA2A
Description: as §1

CCK A (Human) = biological target: T20, CCK A (Human) (Homo sapiens, UniProt P32238)
T20 construct: gene CCKAR
Description: as §1

Dopamine D1 (Human) = biological target: T21, Dopamine D1 (Human) (Homo sapiens, UniProt P21728)
T21 construct: gene DRD1
Description: as §1

Adenosine A1 (Human) = biological target: T22, Adenosine A1 (Human) (Homo sapiens, UniProt P30542)
T22 construct: gene ADORA1
Description: as §1

Serotonin 5HT3 (Human) = biological target: T23, Serotonin 5HT3 (Human) (Homo sapiens, UniProt P46098)
T23 construct: gene HTR3A
Description: as §1

Muscarinic M1 (Human) = biological target: T24, Muscarinic M1 (Human) (Homo sapiens, UniProt P11229)
T24 construct: gene CHRM1
Description: as §1

[4] = biological target: T25, Serotonin transporter (Human) (Homo sapiens, UniProt P31645)
T25 construct: gene SLC6A4
Description: as §1

α1B-Adrenergic = biological target: T26, α1B-Adrenergic (Rattus norvegicus, UniProt P15823)
T26 construct: gene Adra1b
Description: as §1

Bradykinin B2 (Human) = biological target: T27, Bradykinin B2 (Human) (Homo sapiens, UniProt P30411)
T27 construct: gene BDKRB2
Description: as §1

Opiate δ (Human) = biological target: T28, Opiate δ (Human) (Homo sapiens, UniProt P41143)
T28 construct: gene OPRD1
Description: as §1

GABA B = biological target: T29, GABA B (Rattus norvegicus, UniProt Q9Z0U4)
T29 construct: gene Gabbr1
Description: as §1

α2B-Adrenergic (Human) = biological target: T30, α2B-Adrenergic (Human) (Homo sapiens, UniProt P18089)
T30 construct: gene ADRA2B
Description: as §1

Cannabinoid CB1 (Human) = biological target: T31, Cannabinoid CB1 (Human) (Homo sapiens, UniProt P21554)
T31 construct: gene CNR1
Description: as §1

Vasopressin V1 = biological target: T32, Vasopressin V1 (Rattus norvegicus, UniProt P30560)
T32 construct: gene Avpr1a
Description: as §1

Histamine H2 (Human) = biological target: T33, Histamine H2 (Human) (Homo sapiens, UniProt P25021)
T33 construct: gene HRH2
Description: as §1

β1-Adrenergic (Human) = biological target: T34, β1-Adrenergic (Human) (Homo sapiens, UniProt P08588)
T34 construct: gene ADRB1
Description: as §1

Neuropeptide Y2 (Human) = biological target: T35, Neuropeptide Y2 (Human) (Homo sapiens, UniProt P49146)
T35 construct: gene NPY2R
Description: as §1

Opiate κ (Human) = biological target: T36, Opiate κ (Human) (Homo sapiens, UniProt P41145)
T36 construct: gene OPRK1
Description: as §1

Androgen = biological target: T37, Androgen (Rattus norvegicus, UniProt P15207)
T37 construct: gene Ar
Description: as §1

Adenosine A2a (Human) = biological target: T38, Adenosine A2a (Human) (Homo sapiens, UniProt P29274)
T38 construct: gene ADORA2A
Description: as §1

Neurokinin NK1 (Human) = biological target: T39, Neurokinin NK1 (Human) (Homo sapiens, UniProt P25103)
T39 construct: gene TACR1
Description: as §1

Muscarinic M2 (Human) = biological target: T40, Muscarinic M2 (Human) (Homo sapiens, UniProt P08172)
T40 construct: gene CHRM2
Description: as §1

Endothelin ETA (Human) = biological target: T41, Endothelin ETA (Human) (Homo sapiens, UniProt P25101)
T41 construct: gene EDNRA
Description: as §1

Cannabinoid CB2 (Human) = biological target: T42, Cannabinoid CB2 (Human) (Homo sapiens, UniProt P34972)
T42 construct: gene CNR2
Description: as §1

T27 sequence (P30411 whole entry): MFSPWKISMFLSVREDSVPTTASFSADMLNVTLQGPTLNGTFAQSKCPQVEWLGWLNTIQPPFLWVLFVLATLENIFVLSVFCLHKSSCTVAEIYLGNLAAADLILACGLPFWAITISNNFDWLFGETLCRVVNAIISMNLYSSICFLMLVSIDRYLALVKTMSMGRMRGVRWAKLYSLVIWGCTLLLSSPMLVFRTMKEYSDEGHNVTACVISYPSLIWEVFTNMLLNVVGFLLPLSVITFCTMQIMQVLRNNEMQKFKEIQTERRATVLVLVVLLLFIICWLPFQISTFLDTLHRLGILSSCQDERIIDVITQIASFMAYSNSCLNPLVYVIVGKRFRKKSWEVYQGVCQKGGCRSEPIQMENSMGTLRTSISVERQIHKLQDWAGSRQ
T25 sequence (P31645 whole entry): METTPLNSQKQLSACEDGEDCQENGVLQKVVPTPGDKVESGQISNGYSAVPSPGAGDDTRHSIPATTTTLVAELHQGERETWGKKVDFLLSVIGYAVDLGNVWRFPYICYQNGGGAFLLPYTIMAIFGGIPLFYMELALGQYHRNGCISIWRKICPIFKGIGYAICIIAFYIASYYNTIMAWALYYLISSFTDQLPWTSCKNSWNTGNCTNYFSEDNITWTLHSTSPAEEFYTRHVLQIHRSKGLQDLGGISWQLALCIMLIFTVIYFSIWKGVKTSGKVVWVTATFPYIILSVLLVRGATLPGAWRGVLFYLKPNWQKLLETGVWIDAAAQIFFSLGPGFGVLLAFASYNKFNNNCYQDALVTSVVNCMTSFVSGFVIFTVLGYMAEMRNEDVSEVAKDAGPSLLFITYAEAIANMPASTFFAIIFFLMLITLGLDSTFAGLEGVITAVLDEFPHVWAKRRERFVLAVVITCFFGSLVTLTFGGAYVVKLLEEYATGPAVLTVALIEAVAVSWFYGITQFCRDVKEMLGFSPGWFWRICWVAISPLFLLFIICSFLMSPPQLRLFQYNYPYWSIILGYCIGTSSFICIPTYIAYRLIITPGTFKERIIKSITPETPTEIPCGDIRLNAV
T14 sequence (P23975 whole entry): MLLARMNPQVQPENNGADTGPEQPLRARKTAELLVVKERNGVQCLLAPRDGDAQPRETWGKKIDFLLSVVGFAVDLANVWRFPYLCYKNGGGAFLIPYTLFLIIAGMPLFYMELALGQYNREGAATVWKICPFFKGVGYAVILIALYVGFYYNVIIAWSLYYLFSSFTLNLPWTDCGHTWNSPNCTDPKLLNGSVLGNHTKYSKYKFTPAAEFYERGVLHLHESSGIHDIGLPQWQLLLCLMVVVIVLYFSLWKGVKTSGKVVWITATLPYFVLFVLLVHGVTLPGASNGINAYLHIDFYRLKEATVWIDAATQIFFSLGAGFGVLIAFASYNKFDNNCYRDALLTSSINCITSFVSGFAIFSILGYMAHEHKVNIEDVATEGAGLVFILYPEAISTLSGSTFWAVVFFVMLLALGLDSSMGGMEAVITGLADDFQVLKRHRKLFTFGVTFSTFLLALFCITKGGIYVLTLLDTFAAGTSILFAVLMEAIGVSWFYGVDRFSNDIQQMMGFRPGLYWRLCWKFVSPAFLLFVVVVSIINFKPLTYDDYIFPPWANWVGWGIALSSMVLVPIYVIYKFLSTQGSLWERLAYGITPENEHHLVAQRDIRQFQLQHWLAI
T15 sequence (P30556 whole entry): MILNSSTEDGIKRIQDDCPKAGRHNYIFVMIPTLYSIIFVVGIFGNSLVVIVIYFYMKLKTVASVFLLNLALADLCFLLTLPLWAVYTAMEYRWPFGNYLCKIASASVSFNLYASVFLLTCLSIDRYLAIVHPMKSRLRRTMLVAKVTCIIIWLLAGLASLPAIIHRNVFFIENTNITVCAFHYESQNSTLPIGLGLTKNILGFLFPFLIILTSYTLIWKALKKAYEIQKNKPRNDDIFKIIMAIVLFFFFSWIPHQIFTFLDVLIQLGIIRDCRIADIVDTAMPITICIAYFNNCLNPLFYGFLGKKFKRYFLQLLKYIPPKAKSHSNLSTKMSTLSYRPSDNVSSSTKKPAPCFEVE
T30 sequence (P18089 whole entry): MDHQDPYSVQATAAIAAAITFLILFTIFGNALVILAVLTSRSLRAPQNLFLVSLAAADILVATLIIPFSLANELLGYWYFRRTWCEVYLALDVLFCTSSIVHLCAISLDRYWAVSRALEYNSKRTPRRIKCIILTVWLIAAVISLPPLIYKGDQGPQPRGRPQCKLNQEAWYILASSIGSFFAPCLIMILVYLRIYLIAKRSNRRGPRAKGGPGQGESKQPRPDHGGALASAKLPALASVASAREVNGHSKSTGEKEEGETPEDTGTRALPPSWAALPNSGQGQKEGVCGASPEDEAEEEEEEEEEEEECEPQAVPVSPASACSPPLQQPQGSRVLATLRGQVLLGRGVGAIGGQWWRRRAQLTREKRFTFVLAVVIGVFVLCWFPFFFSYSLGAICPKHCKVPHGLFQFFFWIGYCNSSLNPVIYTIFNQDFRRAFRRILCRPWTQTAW
T29 sequence (Q9Z0U4 whole entry): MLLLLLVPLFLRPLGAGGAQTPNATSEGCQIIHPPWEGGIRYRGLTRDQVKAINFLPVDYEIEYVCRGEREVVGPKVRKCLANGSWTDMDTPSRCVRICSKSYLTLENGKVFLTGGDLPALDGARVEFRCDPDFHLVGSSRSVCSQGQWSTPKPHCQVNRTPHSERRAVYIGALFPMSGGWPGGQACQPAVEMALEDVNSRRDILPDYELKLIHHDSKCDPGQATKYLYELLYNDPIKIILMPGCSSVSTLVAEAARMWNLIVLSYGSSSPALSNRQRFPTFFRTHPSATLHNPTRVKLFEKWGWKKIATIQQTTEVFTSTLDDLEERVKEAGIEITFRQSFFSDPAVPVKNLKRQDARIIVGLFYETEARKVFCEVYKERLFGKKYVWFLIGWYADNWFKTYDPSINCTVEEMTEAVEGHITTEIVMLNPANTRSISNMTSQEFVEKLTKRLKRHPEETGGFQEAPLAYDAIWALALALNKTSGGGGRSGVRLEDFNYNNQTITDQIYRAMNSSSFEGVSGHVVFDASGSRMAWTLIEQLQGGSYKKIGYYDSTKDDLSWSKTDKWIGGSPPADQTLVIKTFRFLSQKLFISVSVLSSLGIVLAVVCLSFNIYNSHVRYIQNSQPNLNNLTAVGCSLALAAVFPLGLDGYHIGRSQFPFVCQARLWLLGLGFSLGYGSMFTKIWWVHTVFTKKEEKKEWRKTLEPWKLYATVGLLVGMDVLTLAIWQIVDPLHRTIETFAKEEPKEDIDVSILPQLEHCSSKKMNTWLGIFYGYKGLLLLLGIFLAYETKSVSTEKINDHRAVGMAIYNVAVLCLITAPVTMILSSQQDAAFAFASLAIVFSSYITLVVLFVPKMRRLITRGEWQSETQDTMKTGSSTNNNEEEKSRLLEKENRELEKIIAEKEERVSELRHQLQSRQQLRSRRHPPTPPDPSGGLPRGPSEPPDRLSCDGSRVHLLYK
T29 sequence (O88871 whole entry partner): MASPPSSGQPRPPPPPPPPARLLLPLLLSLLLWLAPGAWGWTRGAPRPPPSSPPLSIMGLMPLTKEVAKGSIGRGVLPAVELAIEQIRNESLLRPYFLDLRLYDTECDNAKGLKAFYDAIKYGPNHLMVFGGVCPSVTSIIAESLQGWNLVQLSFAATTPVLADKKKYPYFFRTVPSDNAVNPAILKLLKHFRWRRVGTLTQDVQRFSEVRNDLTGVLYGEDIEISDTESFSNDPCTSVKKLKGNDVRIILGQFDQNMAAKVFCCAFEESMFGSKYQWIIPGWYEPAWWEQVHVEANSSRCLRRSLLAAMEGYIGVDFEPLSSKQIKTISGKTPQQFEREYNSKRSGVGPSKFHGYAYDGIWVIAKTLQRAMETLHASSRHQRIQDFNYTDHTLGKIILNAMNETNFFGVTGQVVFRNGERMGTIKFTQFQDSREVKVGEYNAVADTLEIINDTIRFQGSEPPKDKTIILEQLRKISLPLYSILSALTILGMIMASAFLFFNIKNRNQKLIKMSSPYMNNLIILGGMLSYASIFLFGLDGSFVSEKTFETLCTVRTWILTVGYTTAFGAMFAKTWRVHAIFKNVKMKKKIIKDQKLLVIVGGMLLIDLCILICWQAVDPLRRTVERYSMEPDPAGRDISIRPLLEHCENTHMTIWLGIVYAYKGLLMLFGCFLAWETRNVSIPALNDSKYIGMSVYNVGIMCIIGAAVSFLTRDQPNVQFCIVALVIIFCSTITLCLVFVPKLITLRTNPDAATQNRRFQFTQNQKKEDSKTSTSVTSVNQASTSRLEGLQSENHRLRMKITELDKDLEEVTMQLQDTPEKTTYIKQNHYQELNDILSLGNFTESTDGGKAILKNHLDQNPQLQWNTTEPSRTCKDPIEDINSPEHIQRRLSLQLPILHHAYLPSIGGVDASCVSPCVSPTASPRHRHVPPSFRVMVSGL
T26 sequence (P15823 whole entry): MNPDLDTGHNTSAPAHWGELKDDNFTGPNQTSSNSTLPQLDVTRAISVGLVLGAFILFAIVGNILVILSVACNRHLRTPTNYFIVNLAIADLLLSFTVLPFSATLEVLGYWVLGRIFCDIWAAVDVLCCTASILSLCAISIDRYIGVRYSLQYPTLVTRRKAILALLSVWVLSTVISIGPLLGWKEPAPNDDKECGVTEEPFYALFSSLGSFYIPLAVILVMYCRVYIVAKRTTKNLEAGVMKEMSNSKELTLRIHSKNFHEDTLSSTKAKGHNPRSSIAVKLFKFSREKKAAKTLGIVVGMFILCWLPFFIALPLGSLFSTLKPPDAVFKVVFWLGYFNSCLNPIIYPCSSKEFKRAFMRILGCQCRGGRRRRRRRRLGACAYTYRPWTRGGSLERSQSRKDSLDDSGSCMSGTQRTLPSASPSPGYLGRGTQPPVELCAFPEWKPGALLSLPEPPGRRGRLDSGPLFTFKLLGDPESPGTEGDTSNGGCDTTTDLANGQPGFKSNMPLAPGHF

**Q.** How did the inhibition at 10 µM (β2-Adrenergic (Human)) turn out when `COc1c(C)cnc(Cn2cnc3c(Cl)nc(N)nc32)c1C` [BIIB021, 6-Chloro-9-[(4-methoxy-3,5-dimethylpyridin-2-yl)methyl]-9H-purin-2-amine] was run?
**A.** The inhibition at 10 µM was 0.9%.

**Q.** And the inhibition at 10 µM (Sigma σ2)?
**A.** Its inhibition at 10 µM is 2.4%.

**Q.** And the inhibition at 10 µM (Serotonin 5HT1A (Human))?
**A.** Its inhibition at 10 µM is 7.6%.

**Q.** What about the inhibition at 10 µM (Glucocorticoid (Human)) of the same molecule?
**A.** Its inhibition at 10 µM is 0%.

**Q.** What about the inhibition at 10 µM (Muscarinic M3 (Human)) of the same molecule?
**A.** Its inhibition at 10 µM is 1.9%.

**Q.** What about the inhibition at 10 µM (Serotonin 5HT2A (Human)) of the same molecule?
**A.** The inhibition at 10 µM was 4.9%.

**Q.** And the inhibition at 10 µM (Opiate μ (Human))?
**A.** The inhibition at 10 µM was 0%.

**Q.** What about the inhibition at 10 µM (Histamine H3 (Human)) of the same molecule?
**A.** Its inhibition at 10 µM is 4.5%.

**Q.** And the inhibition at 10 µM [1]?
**A.** The inhibition at 10 µM was 1.1%.

**Q.** What about the inhibition at 10 µM (Endothelin ETB (Human)) of the same molecule?
**A.** Its inhibition at 10 µM is 4.7%.

**Q.** What about the inhibition at 10 µM (α1A-Adrenergic) of the same molecule?
**A.** Its inhibition at 10 µM is 1.8%.

**Q.** And the inhibition at 10 µM [2]?
**A.** The inhibition at 10 µM was 0.9%.

**Q.** And the inhibition at 10 µM (Bradykinin B1 (Human))?
**A.** Its inhibition at 10 µM is 0%.

**Q.** And the inhibition at 10 µM [3]?
**A.** The inhibition at 10 µM was 0%.

**Q.** And the inhibition at 10 µM (Angiotensin AT1 (Human))?
**A.** The inhibition at 10 µM was 0%.

**Q.** What about the inhibition at 10 µM (Melatonin MT1 (Human)) of the same molecule?
**A.** Its inhibition at 10 µM is 26%.

**Q.** And the inhibition at 10 µM (Dopamine D3 (Human))?
**A.** Its inhibition at 10 µM is 0.4%.

**Q.** What about the inhibition at 10 µM (Histamine H1 (Human)) of the same molecule?
**A.** Its inhibition at 10 µM is 8.1%.

**Q.** And the inhibition at 10 µM (α2A-Adrenergic (Human))?
**A.** The inhibition at 10 µM was 13%.

**Q.** And the inhibition at 10 µM (CCK A (Human))?
**A.** Its inhibition at 10 µM is 2.8%.

**Q.** What about the inhibition at 10 µM (Dopamine D1 (Human)) of the same molecule?
**A.** Its inhibition at 10 µM is 16%.

**Q.** And the inhibition at 10 µM (Adenosine A1 (Human))?
**A.** Its inhibition at 10 µM is 8.4%.

**Q.** What about the inhibition at 10 µM (Serotonin 5HT3 (Human)) of the same molecule?
**A.** The inhibition at 10 µM was 18%.

**Q.** And the inhibition at 10 µM (Muscarinic M1 (Human))?
**A.** Its inhibition at 10 µM is 1.5%.

**Q.** And the inhibition at 10 µM [4]?
**A.** Its inhibition at 10 µM is 0%.

**Q.** And the inhibition at 10 µM (α1B-Adrenergic)?
**A.** Its inhibition at 10 µM is 0%.

**Q.** What about the inhibition at 10 µM (Bradykinin B2 (Human)) of the same molecule?
**A.** Its inhibition at 10 µM is 0%.

**Q.** And the inhibition at 10 µM (Opiate δ (Human))?
**A.** Its inhibition at 10 µM is 4.2%.

**Q.** What about the inhibition at 10 µM (GABA B) of the same molecule?
**A.** Its inhibition at 10 µM is 0%.

**Q.** And the inhibition at 10 µM (α2B-Adrenergic (Human))?
**A.** Its inhibition at 10 µM is 0%.

**Q.** What about the inhibition at 10 µM (Cannabinoid CB1 (Human)) of the same molecule?
**A.** Its inhibition at 10 µM is 5.1%.

**Q.** And the inhibition at 10 µM (Vasopressin V1)?
**A.** Its inhibition at 10 µM is 3%.

**Q.** And the inhibition at 10 µM (Histamine H2 (Human))?
**A.** Its inhibition at 10 µM is 0.7%.

**Q.** And the inhibition at 10 µM (β1-Adrenergic (Human))?
**A.** The inhibition at 10 µM was 0%.

**Q.** And the inhibition at 10 µM (Neuropeptide Y2 (Human))?
**A.** Its inhibition at 10 µM is 1.3%.

**Q.** What about the inhibition at 10 µM (Opiate κ (Human)) of the same molecule?
**A.** The inhibition at 10 µM was 14%.

**Q.** What about the inhibition at 10 µM (Androgen) of the same molecule?
**A.** Its inhibition at 10 µM is 0.7%.

**Q.** And the inhibition at 10 µM (Adenosine A2a (Human))?
**A.** The inhibition at 10 µM was 14%.

**Q.** And the inhibition at 10 µM (Neurokinin NK1 (Human))?
**A.** Its inhibition at 10 µM is 6.2%.

**Q.** What about the inhibition at 10 µM (Muscarinic M2 (Human)) of the same molecule?
**A.** Its inhibition at 10 µM is 4.6%.

**Q.** And the inhibition at 10 µM (Endothelin ETA (Human))?
**A.** Its inhibition at 10 µM is 4.8%.

**Q.** And the inhibition at 10 µM (Cannabinoid CB2 (Human))?
**A.** The inhibition at 10 µM was 0%.
